Positions of bridges follow the written chain, without caps; N, C: chain ends. Non-standard residues stand in square brackets, D forms with d. Residues, ends and D or L forms follow the SMILES beside them.
Columns and labels:
[1] = tested on: total acid output; experiment: Four hour pylorus ligated rat test (Shay et al.), anti-secretory activity; assay type: in vivo; conditions: dosage between 0.25 and 2.0 mg/kg, p<0.05
Description: Therefore, the product of Example 2 is also useful as an anti-secretory agent for the treatment of peptic ulcer disease.

[2] = tested on: growth hormone; experiment: Arginine-stimulated growth hormone secretion in Nembutal-anesthetized rats; assay type: in vivo, Albino male rats; conditions: 100 micrograms per kilogram subcutaneous; arginine into the heart 10 min later, blood 5 min after arginine; p<0.01; control 122±26 ng/ml
Procedure: The activity of the product of the preceding preparatory example, (des-Ala^1 -Gly^2, D-Lys^4, Trp^5, D-Trp^8)Somatostatin was determined by the following procedure:
Albino male rats were administered Nembutal intraperitoneally at a dose of 50 milligrams per kilogram. Fifteen minutes later a subcutaneous injection of the test compound or physiological saline was administered. Ten minutes later 0.5 millileters of arginine (300 milligrams per milliliter, pH 7.2) is injected into the heart. Five minutes after receipt of the arginine the rats are decapitated and blood is collected into trasylol-EDTA. […] Thus, (des-Ala^1 -Gly^2, D-Lys^4, Trp^5, D-Trp^8)Somatostatin, representative of the corresponding D-Arg^4,D-His^4, D-Orn^4, Phe^5, Tyr^5, Leu^5 and Met^5 analogues, their (Ala^1 -Gly^2)somatostatin analogues and the corresponding L-Trp^8 and D-Cys^14 analogues, is an effective agent for selectively reducing secretion of growth hormone at relatively high doses.

C[C@@H](O)[C@@H]1NC(=O)[C@H](Cc2ccccc2)NC(=O)[C@H]([C@@H](C)O)NC(=O)[C@H](CCCCN)NC(=O)[C@@H](Cc2c[nH]c3ccccc23)NC(=O)[C@H](Cc2ccccc2)NC(=O)[C@H](Cc2ccccc2)NC(=O)[C@H](Cc2c[nH]c3ccccc23)NC(=O)[C@@H](CCCCN)NC(=O)[C@@H](N)CSSC[C@@H](C(=O)O)NC(=O)[C@H](CO)NC1=O [Example 2, L-cysteinyl-D-lysyl-L-tryptophyl-L-phenylalanyl-L-phenylalanyl-D-tryptophyl-L-lysyl-L-threonyl-L-phenylalanyl-L-threonyl-L-seryl-L-cysteine cyclic (1-12) disulfide] (H-C[dK]WFF[dW]KTFTSC-OH; disulfide 1-12)
inhibition of total acid output [1]: ~50%
growth hormone in blood [2]: 24 ± 7 ng/mL

Reference: US4182707A, “Somatostatin analogues” (American Home Products Corporation, priority 1978, dated 1980)
